# Earlier results as cited in patent US7326706B2, “Pyrazine modulators of cannabinoid receptors” (Bristol-Myers Squibb Company, priority 2003, dated 2008).
# Assays:
# [1] = 16 week trial period
# [2] = chronic administration for two weeks
Compound,body weight in human subjects [1],body weight [2]
Cc1c(C(=O)NN2CCCCC2)nn(-c2ccc(Cl)cc2Cl)c1-c1ccc(Cl)cc1 [SR-141716],dose-dependently reduced body weight,–
Cc1c(C(=O)NN2CCCCC2)nn(-c2ccc(Cl)cc2Cl)c1-c1ccc(I)cc1 [AM-251],–,substantial body weight reduction
